What was measured:
[1] = Adsorption of sulfentrazone in PC vesicle-montmorillonite suspension as a function of buffer pH; assay type: physicochemical; settings: 5 g/L montmorillonite, 6 mM PC, 2.6 mM SFZ
Protocol: The formulations of PC with different herbicides were prepared by dissolving various quantities of the herbicide in question in a solution of 6 mM PC through sonication, and subsequent adding of montmorillonite. The herbicides employed were alachlor (hydrophobic in nature), atrazine (of basic nature) and sulfentrazone (of acid nature). […] The added amounts of the herbicides were 1.5-14 mM for alachlor, 1.8-2.4 mM for atrazine and 1.3-5.7 mM for sulfentrazone. The clay concentration was 1.6, 5 or 10 g/L. Following agitation during 24 h the suspensions were centrifuged at 20000 g during 10 min, the remaining herbicide in the supernatants was analysed, and the precipitates were lyophilised giving rise to the formulations. The herbicides were analysed by HPLC (Shimadzu Model 10A) fitted with a PDA detector. The reverse phase column was a Kromasil 100 C18 of 15 cm. The flow speed was 1.0 mL min−1. […]
The final concentrations of the formulations and the percentage in weight of the herbicides in the formulation are shown in Table 2. […] The active ingredient content was determined by means of sonication of 5 mg of each formulation in 20 ml of methanol. The suspensions were centrifuged and the herbicide in the supernatants was analysed. […]

[2] = Speciation of SFZ in solution; assay type: physicochemical
Description: A primordial factor in the encapsulation of acidic molecules is the pH of the solution. […] However, small anionic species can also permeabilise the bilayers of PC. In fact, SFZ adsorption at pH 7.0 was 4 times higher than the amount of neutral species in solution.

[3] = 96 h of irradiation; cited from earlier work

SMILES	adsorption of SFZ ([1]; buffer of pH 5.0)	adsorption of SFZ ([1]; buffer of pH 7.0 Trizma-HCl 1 M)	speciation in solution: anions ([2]; pH 5.0)	speciation in solution: neutral molecules ([2]; pH 5.0)	speciation in solution: anionic species ([2]; pH 7.0)	speciation in solution: neutrals ([2]; pH 7.0)	activity retained following irradiation [3]
Cc1nn(-c2cc(NS(C)(=O)=O)c(Cl)cc2Cl)c(=O)n1C(F)F [SFZ, sulfentrazone]	69.5%	11.8%	2.7%	97.3%	73.4%	26.6%	
CCCN(CCC)c1c([N+](=O)[O-])cc(C(F)(F)F)cc1[N+](=O)[O-] [free trifluralin, trifluralin]							30%

Reference: patent publication US20110065582A1, “ENVIRONMENTALLY FRIENDLY SLOW-RELEASE PESTICIDE FORMULATIONS” (Consejo Superior De Investigaciones Cientificas, priority 2008, published 2011)
